System: avian growth plate (GP) chondrocytes
Test: Proteoglycan levels (dimethylmethylene blue assay) in primary growth plate chondrocyte cultures treated with vitamin D3 metabolites
Format: cell-based, hybrid broiler-strain chickens
Description: Time and dosage-dependent effects of 1,25(OH)2 Vitamin D3 and 24,25(OH)2 Vitamin D3 on primary cultures of pre- and post-confluent avian growth plate (GP) chondrocytes were examined. Cultures were grown either in a serum-containing culture medium designed to closely mimic normal GP extracellular fluid (DATP5) or a serum-free culture medium. A variety of cellular parameters were measured including proteoglycan (PG), lactate dehydrogenase (LDH) and alkaline phosphatase (ALP) activity and calcium and phosphate mineral deposition in the extracellular matrix were also measured.
To develop the cell cultures, epiphyseal growth plates were dissected from the tibiae of a large number of 6-8-week-old hybrid broiler-strain chickens. The plates were pooled and the chondrocytes isolated. For these studies, the isolated cells were distributed into 320 identical primary cultures grown in 35 mm dishes in DMEM (2 ml per dish) with 10% fetal bovine serum for the first 3-4 days. Culture media were changed and a supplement of fresh ascorbic acid (25-50 μg/ml) added every 3-4 days for the duration of the experiments. From day 7 onward for 160 of the cultures, the medium was changed to DATP5 mineralization medium. To the other 160 dishes on day 7 the medium was changed to DMEM:HL-1 (1:1) and from day 10 onward to HL-1 serum-free medium (Biowhittaker, Walkersville, Md.). HL-1 chemically defined proprietary media contains transferrin, testosterone, sodium selenite, ethanolamine, saturated and unsaturated fatty acids, and stabilizing proteins (less than 30 μg/ml) and is supplemented with 10 mM β-glycerophosphate. […] All culture media contained 100 IU/ml of penicillin, 100 μg/ml streptomycin, and 0.25 μg/ml amphotericin B.
Administration of the vitamin D3 metabolites was initiated either before the cells attained confluence (Day 7, pre-confluent tests), or after they had become confluent (Day 14, post-confluent tests), and continued as indicated. Stock solutions (2 mM) of the vitamin D3 metabolites were prepared and further diluted in ethanol so that 2 μl of the test solution was added to 2 ml of culture medium.
To analyze biochemical activities, cells were harvested from the mm dishes in 1 ml TMT buffer (50 mM Tris, pH 7.5, 0.5 mM MgCl2, 0.05% Triton X-100), the samples being sonicated in a water-bath. Aliquots were taken from each sample for analysis of the following seven parameters: alkaline phosphatase (ALP) and lactate dehydrogenase (LDH) activities, Hoechst DNA, Lowry protein, proteoglycan (PG) and Ca^2+ and Pi mineral content. […] Bovine serum albumin was used as a standard. Proteoglycan content of the cell matrix was analyzed using the dimethylmethylene blue reagent 11 measuring the absorbency difference at 520 and 589 nm. The assay is based on the ability of the sulfated glycosaminoglycans to bind to the cationic dye, dimethylmethylene blue, in solution.
Thus within each sample, the seven parameters were analyzed and subsequently compared. Overall statistical analysis of differences between the various treatment parameters was performed using ANOVA with post hoc Tukey HSD multiple comparisons.

[1] = pre-confluent cultures, serum-containing DATP5 medium, early exposure (Day 7-17)

| Compound | effect of high levels on proteoglycan levels (post-confluent treatment (from Day 14), both serum-containing and serum-free cultures) | effect on proteoglycan levels [1] | increase in proteoglycan levels over the control (pre-confluent cultures, serum-containing DATP5 medium, early exposure (Day 7-17), 10 nM) | effect of supra-physiological levels on proteoglycan levels (pre-confluent cultures, serum-free HL-1 medium, 10 nM) | maximal stimulation of proteoglycan levels (pre-confluent cultures, serum-free HL-1 medium, Day 24) [fold] | effect on proteoglycan (post-confluent exposure (from Day 14)) | effect on proteoglycan levels (pre-confluent cultures, serum-containing DATP5 medium, longer exposure) | concentration of maximal stimulation of proteoglycan levels (pre-confluent cultures, serum-free HL-1 medium) [nM] | effect on proteoglycan formation (pre-confluent cultures, serum-free media) | effect of supra-physiological levels on proteoglycan formation (pre-confluent cultures, serum-free media, 100 nM) | maximal effects on proteoglycan formation relative to those with 1,25(OH)2D3 (pre-confluent cultures, serum-free media, at 10 nM) |
| --- | --- | --- | --- | --- | --- | --- | --- | --- | --- | --- | --- |
| C=C1/C(=C\C=C2/CCC[C@]3(C)[C@@H]([C@H](C)CCCC(C)(C)O)CC[C@@H]23)C[C@@H](O)C[C@@H]1O [1,25(OH)2D3, 1,25 Hydroxyvitamin D3] | no longer inhibitory, but actually increased proteoglycan levels | marked dosage-dependent increase | more than four-fold | marked reduction in proteoglycan levels | ~7 |  |  |  |  |  |  |
| C=C1CC[C@H](O)C/C1=C/C=C1\CCC[C@]2(C)[C@@H]([C@H](C)CC[C@@H](O)C(C)(C)O)CC[C@@H]12 [24,25(OH)2D3, 24,25 Hydroxyvitamin D3] |  | minimal stimulation |  |  |  | only small effects | significant increases in proteoglycan levels, equal to or greater than those caused by 1,25(OH)2D3 | 10 | stimulated proteoglycan formation | inhibitory to proteoglycan formation | only about half |
